Reference: PubChem BioAssay AID1919000 (Molecular Pharmacology Branch, DTP, NCI, 2023)

Test system: 653999-131-R-J2-PDC complex spheroids, growth % test/control
Assay: Anticancer human tumor 653999-131-R-J2-PDC patient-derived lung adenocarcinoma cell line growth inhibition [AhR]
Settings: for IC50: curve of first compound; for viability, T/C: stronger effect = lower value; active means viability on the fitted dose curve at most 10% of control; inactive means the rest
In short: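 Agents were dosed in half-log steps down from roughly clinical Cmax, or from 10 microM where Cmax was unknown, alone and with AhR antagonists. Read-out: percent test/control growth of tumor spheroids containing HUVEC and MSC stromal cells.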

[1] = second compound 0.1 µM, first compound 0.000316 µM
[2] = second compound 0.1 µM, first compound 0.001 µM
[3] = second compound 0.1 µM, first compound 0.00316 µM
[4] = second compound 0.1 µM, first compound 0.01 µM
[5] = second compound 0.1 µM, first compound 0.0316 µM
[6] = second compound 0.1 µM, first compound 0.1 µM
[7] = second compound 0.316 µM, first compound 0.000316 µM
[8] = second compound 0.316 µM, first compound 0.001 µM
[9] = second compound 0.316 µM, first compound 0.00316 µM
[10] = second compound 0.316 µM, first compound 0.01 µM
[11] = second compound 0.316 µM, first compound 0.0316 µM
[12] = second compound 0.316 µM, first compound 0.1 µM
[13] = second compound 1 µM, first compound 0.000316 µM
[14] = second compound 1 µM, first compound 0.001 µM
[15] = second compound 1 µM, first compound 0.00316 µM
[16] = second compound 1 µM, first compound 0.01 µM
[17] = second compound 1 µM, first compound 0.0316 µM
[18] = second compound 1 µM, first compound 0.1 µM
[19] = second compound 3.16 µM, first compound 0.000316 µM
[20] = second compound 3.16 µM, first compound 0.001 µM
[21] = second compound 3.16 µM, first compound 0.00316 µM
[22] = second compound 3.16 µM, first compound 0.01 µM
[23] = second compound 3.16 µM, first compound 0.0316 µM
[24] = second compound 3.16 µM, first compound 0.1 µM
[25] = second compound 10 µM, first compound 0.000316 µM
[26] = second compound 10 µM, first compound 0.001 µM
[27] = second compound 10 µM, first compound 0.00316 µM
[28] = second compound 10 µM, first compound 0.01 µM
[29] = second compound 10 µM, first compound 0.0316 µM
[30] = second compound 10 µM, first compound 0.1 µM
[31] = second compound 0.1 µM, first compound 0.00949 µM
[32] = second compound 0.1 µM, first compound 0.03 µM
[33] = second compound 0.1 µM, first compound 0.0949 µM
[34] = second compound 0.1 µM, first compound 0.3 µM
[35] = second compound 0.316 µM, first compound 0.00949 µM
[36] = second compound 0.316 µM, first compound 0.03 µM
[37] = second compound 0.316 µM, first compound 0.0949 µM
[38] = second compound 0.316 µM, first compound 0.3 µM
[39] = second compound 1 µM, first compound 0.00949 µM
[40] = second compound 1 µM, first compound 0.03 µM
[41] = second compound 1 µM, first compound 0.0949 µM
[42] = second compound 1 µM, first compound 0.3 µM
[43] = second compound 3.16 µM, first compound 0.00949 µM
[44] = second compound 3.16 µM, first compound 0.03 µM
[45] = second compound 3.16 µM, first compound 0.0949 µM
[46] = second compound 3.16 µM, first compound 0.3 µM
[47] = second compound 10 µM, first compound 0.00949 µM
[48] = second compound 10 µM, first compound 0.03 µM
[49] = second compound 10 µM, first compound 0.0949 µM
[50] = second compound 10 µM, first compound 0.3 µM
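Further: spheroids exposed to agents for seven days.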
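Wherever viability, T/C is given: 100% = DMSO vehicle control viability.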

Cn1ncnc1C1c2n[nH]c(=O)c3cc(F)cc(c23)NC1c1ccc(F)cc1 (stereo not given) + CC(CO)NC(=O)c1cc(-c2ccc(Cl)cc2)nn(-c2cnn(C)c2)c1=O
inactive: viability, T/C [1] 104% | viability, T/C [2] 99.5% | viability, T/C [3] 109% | viability, T/C [4] 101% | viability, T/C [5] 102% | viability, T/C [6] 91.9% | viability, T/C [7] 111% | viability, T/C [8] 98.8% | viability, T/C [9] 97.1% | viability, T/C [10] 96.3% | viability, T/C [11] 87.2% | viability, T/C [12] 102% | viability, T/C [13] 105% | viability, T/C [14] 103% | viability, T/C [15] 102% | viability, T/C [16] 106% | viability, T/C [17] 95.5% | viability, T/C [18] 96% | viability, T/C [19] 99.2% | viability, T/C [20] 107% | viability, T/C [21] 114% | viability, T/C [22] 102% | viability, T/C [23] 97.2% | viability, T/C [24] 100% | viability, T/C [25] 106% | viability, T/C [26] 105% | viability, T/C [27] 103% | viability, T/C [28] 97.1% | viability, T/C [29] 94.8% | viability, T/C [30] 93.2%
> 100 nM: IC50 (second compound 0.1 µM) | IC50 (second compound 0.316 µM) | IC50 (second compound 1 µM) | IC50 (second compound 3.16 µM) | IC50 (second compound 10 µM)

CC[C@@]1(O)C(=O)OCc2c1cc1n(c2=O)Cc2cc3c(CN(C)C)c(O)ccc3nc2-1 + Cc1ccccc1N=Nc1ccc(NC(=O)c2ccnn2C)c(C)c1
79.6 nM: IC50 (second compound 0.316 µM)
84.9 nM: IC50 (second compound 3.16 µM)
> 100 nM: IC50 (second compound 10 µM)
inactive: viability, T/C [1] 111% | viability, T/C [2] 104% | viability, T/C [3] 93.1% | viability, T/C [4] 87.7% | viability, T/C [5] 63.7% | viability, T/C [6] 45.9% | viability, T/C [7] 95% | viability, T/C [8] 108% | viability, T/C [9] 120% | viability, T/C [10] 88.3% | viability, T/C [11] 63.4% | viability, T/C [12] 46% | viability, T/C [13] 101% | viability, T/C [14] 122% | viability, T/C [15] 109% | viability, T/C [16] 94.5% | viability, T/C [17] 61.6% | viability, T/C [18] 44.2% | viability, T/C [19] 103% | viability, T/C [20] 110% | viability, T/C [21] 109% | viability, T/C [22] 91.7% | viability, T/C [23] 59% | viability, T/C [24] 48.2% | viability, T/C [25] 117% | viability, T/C [26] 106% | viability, T/C [27] 101% | viability, T/C [28] 82.3% | viability, T/C [29] 65.8% | viability, T/C [30] 57.8%
68.2 nM: IC50 (second compound 1 µM)
77.5 nM: IC50 (second compound 0.1 µM)

O=C(C=Cn1cnc(-c2cc(C(F)(F)F)cc(C(F)(F)F)c2)n1)NNc1cnccn1 + Cc1cncc(-c2nc(NCCc3c[nH]c4ccccc34)c3ncn(C(C)C)c3n2)c1
376 nM: IC50 (second compound 3.16 µM)
514 nM: IC50 (second compound 1 µM)
inactive: viability, T/C [31] 91.2% | viability, T/C [32] 65.8% | viability, T/C [33] 62.2% | viability, T/C [34] 45.2% | viability, T/C (second compound 0.1 µM, first compound 0.949 µM) 43.8% | viability, T/C (second compound 0.1 µM, first compound 3 µM) 38.3% | viability, T/C [35] 85% | viability, T/C [36] 74% | viability, T/C [37] 64.2% | viability, T/C [38] 50.3% | viability, T/C (second compound 0.316 µM, first compound 0.949 µM) 39.3% | viability, T/C (second compound 0.316 µM, first compound 3 µM) 43.1% | viability, T/C [39] 95.9% | viability, T/C [40] 77.8% | viability, T/C [41] 66.4% | viability, T/C [42] 50.1% | viability, T/C (second compound 1 µM, first compound 0.949 µM) 48.4% | viability, T/C (second compound 1 µM, first compound 3 µM) 42.1% | viability, T/C [43] 95.4% | viability, T/C [44] 86.7% | viability, T/C [45] 74.9% | viability, T/C [46] 51.5% | viability, T/C (second compound 3.16 µM, first compound 0.949 µM) 40.9% | viability, T/C (second compound 3.16 µM, first compound 3 µM) 41% | viability, T/C [47] 59.2% | viability, T/C [48] 49.8% | viability, T/C [49] 52.2% | viability, T/C [50] 40% | viability, T/C (second compound 10 µM, first compound 0.949 µM) 34.9% | viability, T/C (second compound 10 µM, first compound 3 µM) 37.6%
48.5 nM: IC50 (second compound 10 µM)
293 nM: IC50 (second compound 0.316 µM)
233 nM: IC50 (second compound 0.1 µM)

Nc1ncn(C2CC(O)C(CO)S2)c(=O)n1 (stereo not given) + Cc1cncc(-c2nc(NCCc3c[nH]c4ccccc34)c3ncn(C(C)C)c3n2)c1
> 300 nM: IC50 (second compound 0.1 µM) | IC50 (second compound 0.316 µM) | IC50 (second compound 1 µM) | IC50 (second compound 3.16 µM) | IC50 (second compound 10 µM)
inactive: viability, T/C (second compound 0.1 µM, first compound 0.000949 µM) 106% | viability, T/C (second compound 0.1 µM, first compound 0.003 µM) 95.4% | viability, T/C [31] 93.7% | viability, T/C [32] 90.4% | viability, T/C [33] 93.2% | viability, T/C [34] 82.5% | viability, T/C (second compound 0.316 µM, first compound 0.000949 µM) 102% | viability, T/C (second compound 0.316 µM, first compound 0.003 µM) 99.8% | viability, T/C [35] 101% | viability, T/C [36] 94.3% | viability, T/C [37] 88.7% | viability, T/C [38] 85.7% | viability, T/C (second compound 1 µM, first compound 0.000949 µM) 106% | viability, T/C (second compound 1 µM, first compound 0.003 µM) 111% | viability, T/C [39] 121% | viability, T/C [40] 109% | viability, T/C [41] 106% | viability, T/C [42] 103% | viability, T/C (second compound 3.16 µM, first compound 0.000949 µM) 84.1% | viability, T/C (second compound 3.16 µM, first compound 0.003 µM) 87.8% | viability, T/C [43] 93.4% | viability, T/C [44] 84.7% | viability, T/C [45] 66.5% | viability, T/C [46] 73% | viability, T/C (second compound 10 µM, first compound 0.000949 µM) 65% | viability, T/C (second compound 10 µM, first compound 0.003 µM) 50.9% | viability, T/C [47] 58% | viability, T/C [48] 44% | viability, T/C [49] 53% | viability, T/C [50] 52.7%

NS(=O)(=O)OCC1CC(n2ccc3c(NC4CCc5ccccc54)ncnc32)CC1O (stereo not given) + CC(CO)NC(=O)c1cc(-c2ccc(Cl)cc2)nn(-c2cnn(C)c2)c1=O
inactive: viability, T/C [5] 108% | viability, T/C [6] 99.8% | viability, T/C (second compound 0.1 µM, first compound 0.316 µM) 109% | viability, T/C (second compound 0.1 µM, first compound 1 µM) 98.9% | viability, T/C (second compound 0.1 µM, first compound 3.16 µM) 63.4% | viability, T/C (second compound 0.1 µM, first compound 10 µM) 51% | viability, T/C [11] 108% | viability, T/C [12] 98.7% | viability, T/C (second compound 0.316 µM, first compound 0.316 µM) 101% | viability, T/C (second compound 0.316 µM, first compound 1 µM) 80.4% | viability, T/C (second compound 0.316 µM, first compound 3.16 µM) 53.1% | viability, T/C (second compound 0.316 µM, first compound 10 µM) 54.5% | viability, T/C [17] 101% | viability, T/C [18] 111% | viability, T/C (second compound 1 µM, first compound 0.316 µM) 114% | viability, T/C (second compound 1 µM, first compound 1 µM) 53.8% | viability, T/C (second compound 1 µM, first compound 3.16 µM) 53.4% | viability, T/C (second compound 1 µM, first compound 10 µM) 52.3% | viability, T/C [23] 101% | viability, T/C [24] 102% | viability, T/C (second compound 3.16 µM, first compound 0.316 µM) 99.9% | viability, T/C (second compound 3.16 µM, first compound 1 µM) 54.5% | viability, T/C (second compound 3.16 µM, first compound 3.16 µM) 52% | viability, T/C (second compound 3.16 µM, first compound 10 µM) 58.4% | viability, T/C [29] 97.9% | viability, T/C [30] 96.9% | viability, T/C (second compound 10 µM, first compound 0.316 µM) 93.5% | viability, T/C (second compound 10 µM, first compound 1 µM) 54.1% | viability, T/C (second compound 10 µM, first compound 3.16 µM) 51% | viability, T/C (second compound 10 µM, first compound 10 µM) 56.9%
> 10000 nM: IC50 (second compound 0.1 µM) | IC50 (second compound 0.316 µM) | IC50 (second compound 1 µM) | IC50 (second compound 3.16 µM) | IC50 (second compound 10 µM)
